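Values below derive from 48-hour exposures of cells grown in 96-well plates, with endpoints linearly interpolated between the two concentrations bracketing the appropriate inhibition level. TGI marks complete inhibition of growth.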
Key:
Assay in all cases: inhibition of tumour cell growth, NCI panel, 48 h
PC-3 prostate = system: PC-3 prostate
M14 melanoma = system: M14 melanoma
HCT-15 colon = system: HCT-15 colon
SW-620 colon = system: SW-620 colon
DU-145 prostate = system: DU-145 prostate
SK-MEL-5 melanoma = system: SK-MEL-5 melanoma
NCI-H23 lung = system: NCI-H23 lung
SNB-75 CNS = system: SNB-75 CNS
ACHN renal = system: ACHN renal
SF-295 CNS = system: SF-295 CNS
LOX IMVI melanoma = system: LOX IMVI melanoma
OVCAR-4 ovarian = system: OVCAR-4 ovarian
OVCAR-3 ovarian = system: OVCAR-3 ovarian
SF-268 CNS = system: SF-268 CNS
MDA-N = system: MDA-N
SN12C renal = system: SN12C renal
IGROV1 ovarian = system: IGROV1 ovarian
HOP-92 NSCLC = system: HOP-92 NSCLC
A498 renal = system: A498 renal

SMILES	TGI (PC-3 prostate) [µM]	TGI (M14 melanoma) [µM]	TGI (HCT-15 colon) [µM]	TGI (SW-620 colon) [µM]	TGI (DU-145 prostate) [µM]	TGI (SK-MEL-5 melanoma) [µM]	TGI (NCI-H23 lung) [µM]	TGI (SNB-75 CNS) [µM]	TGI (ACHN renal) [µM]	TGI (SF-295 CNS) [µM]	TGI (LOX IMVI melanoma) [µM]	TGI (OVCAR-4 ovarian) [µM]	TGI (OVCAR-3 ovarian) [µM]	TGI (SF-268 CNS) [µM]	TGI (MDA-N) [µM]	TGI (SN12C renal) [µM]	TGI (IGROV1 ovarian) [µM]	TGI (HOP-92 NSCLC) [µM]	TGI (A498 renal) [µM]
CC(C)[C@@H]1NC(=O)[C@H]2N=C(O[C@@H]2C)[C@@H]2CCCN2C(=O)[C@H](Cc2ccccc2)NC(=O)[C@@H]2CSC(=N2)[C@@H](Cc2ccccc2)NC(=O)[C@@H]2CSC1=N2	> 50	> 50	> 50	> 50	> 50	> 50	> 50	6.28	> 50	> 50	> 50	> 50	> 50	> 50	> 50	> 50	> 50	–	–
CCCC(=O)NC1=C(NCC)C(=O)c2ccccc2C1=O	> 100	–	> 100	> 100	> 100	> 100	> 100	> 100	> 100	> 100	–	> 100	> 100	> 100	63.2	> 100	> 100	> 100	–
CN(/N=C(\C(=O)O)c1ccccc1)C1=NCCCN1	> 100	–	> 100	> 100	> 100	> 100	> 100	> 100	> 100	> 100	> 100	> 100	> 100	> 100	> 100	> 100	> 100	> 100	> 100
N#CC(C#N)=Cc1ccc2c(c1)OC(Cl)O2 (stereo not drawn)	47.8	55.7	46.4	–	63	35.1	> 100	75.4	36	37.4	38.2	> 100	52.8	66.4	35.2	51.2	–	–	–
CCOC(=O)/C(C(=S)Nc1ccccc1)=C(/N)N1CCCC1	> 100	> 100	> 100	> 100	> 100	> 100	> 100	–	> 100	> 100	> 100	> 100	> 100	> 100	84.9	> 100	> 100	53.2	> 100
O=c1oc2ccccc2cc1/C=N/N1C(=S)N(c2ccccc2)C(=Nc2ccccc2)C1=Nc1ccccc1	> 100	> 100	> 100	> 100	> 100	> 100	> 100	> 100	> 100	> 100	–	–	> 100	> 100	> 100	> 100	> 100	> 100	–
CC(=O)Nc1ccccc1SCCSSCCSc1ccccc1NC(C)=O	> 100	> 100	42.2	> 100	88.7	> 100	83.9	73.2	39.1	73.7	38.7	57.1	> 100	> 100	68.7	> 100	46.8	64.4	–
O=c1oc2ccccc2c(Nc2ccc3c(c2)S(=O)(=O)c2ccccc2O3)c1[N+](=O)[O-]	62.1	> 100	> 100	> 100	> 100	50.1	62.6	52.4	70.2	77.7	> 100	73.5	79	> 100	85.3	92.9	97.1	55.9	–
CN(C)c1ccc(N=Nc2ccc3nc[nH]c3c2)cc1	> 100	46.8	70.4	> 100	77.3	> 100	> 100	68.9	37.6	57.3	–	68.5	–	54	> 100	71	> 100	–	41.5
CC(=O)OCC(OC(C)=O)C(OC(C)=O)C(C=NN(C(C)=O)S(=O)(=O)c1ccc(/C=C2\NC(=O)NC2=O)cc1)OC(C)=O (stereo not drawn)	> 100	> 100	> 100	> 100	> 100	> 100	> 100	> 100	> 100	> 100	–	> 100	> 100	> 100	> 100	> 100	> 100	–	> 100
C1=NCCNCCN=Cc2ccc(cc2)OCc2cccc(n2)COc2ccc1cc2	> 100	> 100	> 100	> 100	> 100	> 100	> 100	> 100	68.7	> 100	–	> 100	> 100	83.9	> 100	> 100	> 100	> 100	> 100
C=Cc1c(C)c(OC)cc2c1Oc1ccc(OC)c(C)c1CC2	> 100	> 100	> 100	> 100	> 100	> 100	> 100	> 100	> 100	> 100	–	> 100	–	> 100	> 100	> 100	> 100	> 100	> 100
NNC(=O)c1ccc(-n2nnc(C(=O)NN)c2C(=O)NN)cc1	> 100	> 100	> 100	–	> 100	> 100	> 100	–	> 100	> 100	> 100	> 100	> 100	–	> 100	> 100	–	> 100	–

Reference: PubChem BioAssay (NCI)
